In US12208163B2, “Nanostructured lipid gel, method for preparation and use” (CONSEJO SUPERIOR DE INVESTIGACIONES CIENTÍFICAS, priority 2018, dated 2025):

Experiments:
[1] = in vitro cutaneous permeation assay on pig skin, fluorescence microscopy; assay type: in vitro ADME
Description: In order to evaluate the potential of these gels as cutaneous application systems, an in vitro permeation assay was conducted on pig skin and observations were made using fluorescence microscopy. Two gels were formed which were applied to the skin surface. One of them was formed by incorporating a red fluorescent probe (Rhodamine B) in order to observe in which areas of the skin the gel-forming phospholipids are retained. In the other gel, a fluorescent green probe (fluorescein) was added in the aqueous phase with the aim of simulating a possible water-soluble active ingredient incorporated to the gel. The gel was gently applied to the skin and left to permeate overnight at 37° C. in a humid environment. Next, the skin was cut into sections and the cells marked in blue in order to distinguish the different skin layers.

[2] = tested on: chorioallantoic membrane of a chicken egg; test: Eye irritation assay (HET-CAM test); details: for OII (Ocular Irritation Index): calculated from H, V and C times; for Classification: interpretation of OII by Table 2; for Clotting time / Haemorrhage time / Vasoconstriction time: time when change appears, observed for 5 minutes
From the text: With the aim of proposing potential uses of the gel in ocular applications, the possible eye irritation of this material was studied by means of a HET-CAM test. The gel formed from HSPC and OA with a molar ratio of 3:1 and a total lipid concentration of 5% was directly applied to the chorioallantoic membrane of a chicken egg due to its similarity to the human cornea. The appearance of vascular lesion or clotting in response to a compound is the basis for using this technique as an indicator of the probability that a substance may harm the mucous membranes, especially the cornea of the human eye, in vitro. In order to execute the method, the egg shell is carefully removed, moistening the membrane with a NaCl solution at 37° C. Next, the NaCl is removed and the white membrane is removed without harming any blood vessel. Next, the gel sample is applied and the appearance of haemorrhage (H), vasoconstriction (V) and/or clotting (C) can be observed for 5 minutes. Lastly, the Ocular Irritation Index (OII) is estimated using the following formula: [formula] H, V and C are the time in seconds when this change appears. If there is no alteration, they are equal to 300. The result obtained from the formula can be interpreted on the basis of Table 2: [table]

## O=C1OC2(c3ccc(O)cc3Oc3cc(O)ccc32)c2ccccc21 [fluorescein]
[1]; control, aqueous solution with fluorescein without incorporating the gel
  skin permeation of fluorescein from aqueous solution: only slightly incorporated in the stratum corneum
[1]; fluorescein in gel, overnight at 37° C., FIG. 6
  skin permeation of fluorescein dissolved in the aqueous phase of the gel: capable of permeating the skin, covering the entire stratum corneum and epidermis

## CCCCCCCCCCCCOS(=O)(=O)[O-].[Na+] [1% SDS, SDS]
[2]
  OII (Ocular Irritation Index): 3.23
  Classification: Mildly
  Clotting time: 0 s
  Haemorrhage time: 110 s
  Vasoconstriction time: 0 s

## [Na+].[OH-] [NaOH]
[2]
  OII (Ocular Irritation Index): 17.79
  Classification: Irritating (9-21)
  Clotting time: 20 s
  Haemorrhage time: 28 s
  Vasoconstriction time: 13 s
